Laboratory results reported in US10329316B2, “Phenylpropanoid compound and preparation method and use thereof” (QIANJIN PHARMACEUTICAL CO., LTD., priority 2016, dated 2019).
Entries after “also recorded” stand apart in the source; their conditions may differ.

Tests used:
IL-1β = assay: Measurement of inflammatory factor IL-1β in LPS-stimulated Raw 264.7 cells (ELISA kit); type: cell-based, mouse; settings: at various concentrations; LPS 30 μg/ml 24 h; p>0.05; FIG. 4
Procedure: (§1) Mouse IL-1-beta ELISA kit, batch number: 2014/06 (96T), Mouse IL-6 ELISA kit, batch number: 2014/06 (96T), Mouse tumor necrosis factor-alpha (TNF-α) ELISA kit, batch number: 2014/06 (96T), Mouse NO ELISA Kit Batch number: 2014/10 (96T), mouse hydroxyl radical (OH) ELISA detection kit, batch number: 2014/10 (96T).
(§2) Raw 264.7 cells were inoculated on a 96-well plate for 24 hours, then synchronized for 24 hours. The cells were treated with different concentration of medicine for 2 hours, and then stimulated with LPS (30 μg/ml) for 24 hours. Lastly, supernatant was collected and centrifuged for 5 minutes at 10,000 rpm. The supernatant was separated and stored at −80° C. for reserve. The concentration of NO was determined by mouse NO kit.
(§3) Sample prepared in at 1.5 was used for subsequent inflammatory factor determination. The amount of TNF-α, IL-1β, IL-6 produced by cells was measured by mouse TNF-α, IL-1β, and IL-6 kit.

Raw 264.7 cells = assay: Determination of cell vitality by MTT method; type: cell-based, mouse; settings: 1.37 to 12.37 μg/ml, 2 h medicine, then LPS 30 μg/ml 24 h, FIG. 1
Procedure: (§4) Medicine was first dissolved in a small amount of DMSO, and then diluted to a certain concentration with DMEM, so that final concentration of DMSO was less than 1%.
(§5) Raw 264.7 mouse macrophages were incubated in DMEM medium containing 10% heat-inactivated fetal bovine serum (FBS), 10 U/mL penicillin sodium and 100 μg/ml streptomycin, and incubated in 37° C., 5% CO2 incubator.
Cell vitality was determined by MTT method. Cell suspension liquid was inoculated into a 96-well plate (1*104 holes/pore) to incubate for 24 hours and then synchronize for 24 hours. The cells were treated with different concentration of medicine for 2 hours, and then stimulated by LPS (30 μg/ml) for 24 hours. Original medium was abandoned, and MTT (0.5 mg/ml) was added into each hole for 4 hours. The medium was then abandoned and DMSO ([…]) was added into each hole. Absorbance was measured at 490 nm after shaking for 10 min.

NO = assay: Determination of NO concentration in LPS-stimulated Raw 264.7 cells (mouse NO kit); type: cell-based; settings: 6.88±12.38 μg/ml (6.88 to 12.38 μg/mL), LPS 30 μg/ml 24 h, dose-dependent
Procedure: as §4, §5, §2

IL-6 = assay: Measurement of inflammatory factor IL-6 in LPS-stimulated Raw 264.7 cells (ELISA kit); type: cell-based, mouse; settings: at various concentrations; LPS 30 μg/ml 24 h; p>0.05; FIG. 5
Procedure: as §1, §2, §3

hydroxyl radical (OH) = assay: Determination of OH concentration in LPS-stimulated Raw 264.7 cells (OH kit); type: cell-based, mouse; settings: 4.13-12.38 μg/ml, LPS 30 μg/ml 24 h, dose-dependent
Procedure: as §1, §2
Sample prepared at 1.5 was used for OH factor determination. The concentration was determined by OH kit.

TNF-α = assay: Measurement of inflammatory factor TNF-α in LPS-stimulated Raw 264.7 cells (ELISA kit); type: cell-based, mouse; settings: 6.88±12.38 μg/ml (6.88 to 12.38 μg/mL), LPS 30 μg/ml 24 h, p<0.05, dose-dependent, FIG. 3
Procedure: as §1, §2, §3

O=C(CCO)Oc1cc(O)c(OC2OC(CO)C(O)C(O)C2O)c(O)c1 (stereo not drawn) [MM-125]
inhibition of production of IL-1β in Raw 264.7 cells (IL-1β): could not inhibit; also recorded: no obvious inhibitory effect | effect on vitality of Raw 264.7 cells (Raw 264.7 cells): no significant effect | inhibition of the increase of NO concentration induced by LPS (NO; FIG. 2): significantly inhibit; also recorded: significant inhibitory effects | inhibition of the increase of NO concentration induced by LPS (NO; FIG. 2, listed as phenylpropanoid compound): significant effect on inhibiting | inhibition of production of IL-6 in Raw 264.7 cells (IL-6): could not inhibit; also recorded: no obvious inhibitory effect | inhibition of the increase of OH concentration induced by LPS (hydroxyl radical (OH); FIG. 6): significantly inhibit; also recorded: significant inhibitory effects | inhibition of the increase of OH concentration induced by LPS (hydroxyl radical (OH); FIG. 6, listed as phenylpropanoid compound): significant effect on inhibiting | inhibition of production of TNF-α in Raw 264.7 cells (TNF-α): significantly inhibit; also recorded: certain level of inhibiting effects | inhibition of production of TNF-α in Raw 264.7 cells (TNF-α; listed as phenylpropanoid compound): significantly inhibit
